In patent US20120053119A1, “THERAPEUTIC METHOD FOR INCREASING PANCREATIC BETA CELL MASS” (priority 2009, published 2012):

Key:
Assay type in all cases: cell-based
[1] = system: alphaTC-1 cells; experiment: GLP-1 production in alphaTC-1 cells, RIA of media
Procedure: FIG. 20. […] Upper panel: AlphaTC-1 and alphaTCdeltaPC2 cells were incubated for 24 hrs and total GLP-1 secreted was measured in the media. Lower panel: AlphaTC-1 cells were treated with SDF-1 or SDF-1+exendin-4 (Exd4) for the times indicated. Media obtained from the cells was assayed with an RIA specific for the active GLP-1. The findings of increased expression of PC1/3 activity, as evidenced by the production of GLP-1. In the absence of PC2 in alphaTCdPC2 cells is consistent with the findings reported by Wideman et al from the Kieffer lab and by Webb et al in the Steiner lab. It appears that in the absence of PC2, PC13 is expressed. The appearance of GLP-1 between 1 and 4 hrs (lower panel) is consistent with the induction of PC1/3 expression shown above in […]. A most high priority in the experiments planned is to determine whether SDF-1 (and cytokines) induce the production of GLP-1 peptide in mouse islets, pending the availability of support required to do these studies.

[2] = system: INS-1 cells; experiment: Thapsigargin-induced apoptosis, TUNEL staining; conditions: co-incubation with SDF-1
Procedure: FIG. 6. Inhibition of apoptosis by SDF-1 in INS-1 and MIN-6 cells is reversed by knock-down of betacatenin. A. Western blot analysis of extracts from MIN6 cells that were mock treated, thapsigargin-treated (1 μM) and/or siRNA transfected (0.25 mg/ml), by using anti-serum against cleaved caspase-3 (upper panel), anti-serum against cleaved PARP (middle panel) and actin antibody (lower panel) as a loading control. B. Caspase-3 activity (fluorescence/mg proteinx105) of INS-1 or MIN6 cells mock treated, thapsigargin-treated (1 μM) and/or siRNA transfected (0.25 mg/ml). Results are presented as mean±SD for n=3 independent experiments, All values are relative to the first (leftmost) bar. Statistical significance is depicted as * (p<0.05) when compared with control values (leftmost bar) and # (<0.05) when compared with […] thapsigargin treatment. C. Representative images are shown for TUNEL staining of INS-1 cells of n=3 independent experiments. Quantification of apoptotic cells is expressed as percent apoptotic cells relative to the total cells counted (lower left panel). […]
DAPI (nuclei fluorescence) and TUNEL staining For the terminal deoxynucleotidyl transferase mediated dUTP nick end labeling (TUNEL) assay, cells seeded in 4-well chamber slides (Lab-Tak) were treated with thapsigargin and TUNEL assay performed (DeadEnd™ Fluorimetric TUNEL System kit, Promega). […]

[3] = system: Wnt signaling; experiment: Wnt signaling reporter (beta-galactosidase) in isolated islets of TopGal mouse; conditions: SDF-1 1 nM, isolated TopGal mouse islets
Excerpt: A. Isolated islets express reporter-driven beta-galactosidase. The dark regions mark the expression of beta-galactosidase, an indicator of the activation of the Wnt signaling reporter LacZ transgene. […] B. Polymerase chain reaction showing changes in beta-galactosidase mRNA levels in islets shown in panel A.
Isolated mouse pancreatic islets Mouse islets were isolated (Lacy PE (1994) Pancreatic islet cell transplant. Mt Sinai J. Med. 61:23-31.) from the pancreata of TopGal reporter mice transgenic for the LEF-LacZ Wnt signaling reporter (DasGupta R, Fuchs E (1999) Development. 1999 126:4557-4568.). Freshly isolated islets were treated for 4 hrs with SDF-1 with and without the addition of the Galphai/o inhibitor pertussis toxin (PTX) or the CXCR4 antagonist AMD3100. Betagalactosidase activity was determined by incubation of the islets with X-gal for 6 hrs.
Polymerase chain reaction analyses of betagalactosidase mRNA levels in isolated mouse islets Islets from TopGal mice were harvested after treatments with SDF-1, SDF-1+AMD3100, and SDF-1+pertussis toxin. RNA was extracted and beta galactosidase mRNA levels were measured by PCR using a SYBR Green QPCR kit (Stratagene) with the primers as described in Liu Z, Habener J F 2008 Glucagon-like Peptide-1 Activation of TCF7L2-dependent Wnt Signaling Enhances Pancreatic Beta Cell Proliferation. […]

[4] = system: PDX-1; experiment: PDX-1 mRNA by RT-PCR in alphaTC-1 cells; conditions: SDF-1 10 nM, by 12 hours
Procedure: FIG. 22. SDF-1 induces the expression of PDX-1 in alphaTC-1 cells. PDX-1 mRNA is induced by 12 hours after the addition of SDF-1 (10 nM), determined by RT-PCR. M=marker lane.

[5] = system: GLP-1 receptor (GLP-1R) mRNA; experiment: GLP-1R mRNA by RT-PCR in alphaTC-1 cells; conditions: SDF-1 10 nM, by 4 hrs
Procedure: FIG. 21. SDF-1 induces the expression of the GLP-1 receptor (GLP-1R) mRNA in alphaTC-1 cells. […] RNA levels were determined by RT-PCR.

[6] = system: prohormone convertase PC1/3; experiment: PC1/3 expression by QPCR in alphaTC-1 cells; conditions: by one hour after addition of SDF-1, QPCR
Excerpt: FIG. 19. […] Determined by QPCR. High priority experiments planned are to examine PC1/3 protein expression in isolated mouse islets using Western immunoblot, immunocytochemistry, and bioassays for active PC 1/3.

[7] = system: INS-1 cells; experiment: Real time RT-PCR of beta-catenin and cyclin D1 mRNA in INS-1 cells; conditions: SDF-1 4 hr, relative to vehicle-treated control
Procedure: FIG. 9. […] Data are normalized by using the housekeeping gene GADPH as an internal control and represent means±S.D. of three independent experiments. Statistical significance is depicted as (p<0.01) when compared with control values.
Gene expression profiling on focused microarrays INS-1 cells were untreated or treated with 10 nM SDF-1 for 4 hrs. Total RNA was isolated and Biotin-labeled complimentary RNAs were generated using the TrueLabeling-AMP Linear RNA Amplification Kit (SuperArray Bioscience Corp.) The Wnt-signaling pathway-focused microarray filters (118 probes) (SuperArray Bioscience Corp.) were hybridized with these biotin-labeled targets (5 microg/array at 60 C overnight. The filters were washed and subsequently incubated with alkaline phosphatase-conjugated streptavidin and CDPStar substrate. The Chemiluminescent images were captured using Kodak Digital Station 440 (Perkin Elmer). For quantification, the spot intensity was measured and normalized to the value of the housekeeping gene GAPDH. Fold-changes in gene expression levels were determined by comparisons of hybridization densities of SDF-1 treated versus untreated INS-1 cells. Real time RT-PCR was carried out by using the SYBR® Green QPCR kit (Stratagene). Briefly, INS-1 cells were treated with 10 nM SDF-1 or PBS vehicle control for 4 h. […]

Substance: SDF-1: small, secreted 70 amino acid peptide chemokine, SEQ ID NO: 1, ligand of CXCR4
- production of processed GLP-1 peptide [1]: induces the production of processed GLP-1 peptide
- effect on thapsigargin-increased number of TUNEL positive cells [2]: inhibited
- activation of Wnt signaling (beta-galactosidase) in TopGal islets [3]: activates Wnt signaling
- PDX-1 mRNA expression [4]: induced
- GLP-1R mRNA expression [5]: induces the expression of GLP-1R
- PC1/3 expression [6]: induces prohormone convertase PC1/3 expression
- beta-catenin mRNA expression [7]: 3 fold
- cyclin D1 mRNA expression [7]: 2 fold
